Measurements reported in US4220577A, “Iodopropargyl pyridyl and picolinyl ethers and thioethers as paint fungicides” (Givaudan Corporation, priority 1979, dated 1980).

How the values were obtained:
Assay type in all cases: cell-based
[1] = tested on: Aureobasidium pullulans (strain 1); experiment: Antifungal activity on painted surfaces, strain 1; parameters: key to Surface Growth: 0: No growth; 1: Slight growth; 2: Moderate growth; 3: Heavy growth; details: Strain 1, three weeks
Method: (§1) Any antifungal agent which can be used to prevent mildew on painted surfaces must be effective against Aureobasidium pullulans, the organism which is primarily responsible for mildew on painted surfaces. The effectiveness of the novel compounds was tested by incorporating the compound into an exterior latex paint, applying the paint to a surface, and testing the ability of the painted surface to prevent the growth of Aureobasidium pullulans. The tests were run as described below. The novel compounds were incorporated into an exterior vinyl acetate latex paint by mulling the compound into the paint. The compounds were tested in the paints at levels of 0.25% and 0.5%. One coat of this paint was applied to each side of a piece of Whatman #30 filter paper. Two one-inch squares were cut from the filter paper. Each square was centered on the agar surface of separate Petri dishes containing malt agar. One square was inoculated with a suspension of Aureobasidium pullulans (strain 1) which was an in-house strain used for routine antimicrobial testing. The second square was inoculated with a suspension of Aureobasidium pullulans (strain 2) which was grown from a culture obtained from the surface of a mildew infested panel. Squares painted with the same exterior vinyl acetate latex paint, but without the novel compounds of this invention, were run in parallel. The Petri dishes were then incubated at 27° C. and at greater than 90% humidity for a three week period and observed for zones of inhibition and surface growth.

[2] = tested on: Aureobasidium pullulans (strain 2); experiment: Antifungal activity on painted surfaces, strain 2; parameters: key to Surface Growth: 0: No growth; 1: Slight growth; 2: Moderate growth; 3: Heavy growth; key to Zone of Inhibition: 0: no zone; 1-5 mm; 2: 6-10 mm; 3: 11-15 mm; 4: 16-20 mm; 5: >20 mm; details: Strain 2, three weeks
Method: as §1

[3] = tested on: Aureobasidium pullulans (strain 2); experiment: Antifungal activity of painted birch blades after exposure to heat and light; parameters: key to Surface Growth: 0: No growth; 1: Slight growth; 2: Moderate growth; 3: Heavy growth; details: after light (300-400 nm) and heat (40° C.) four weeks
Method: Successful paint fungicides must be stable when exposed to the elements such as heat and light. Such stability was tested in the laboratory by exposing painted sticks to heat and light. The compounds of this invention were incorporated into an exterior vinyl acetate latex paint as described in Example XXI. Birch blades (tongue depressors) were painted (two coats) and continuously exposed to light (wavelength 300-400 nm) and heat (40° C.) for four consecutive weeks. At the end of the exposure time, one-inch squares of the painted birch blades were cut and tested according to the procedure of Example XXI, using strain 2.

[4] = 0.25% in vinyl acetate latex paint
[5] = 0.5% in vinyl acetate latex paint

Row | SMILES | Surface Growth [1, 5] | Zone of Inhibition [1, 5] | Surface Growth [2, 5] | Zone of Inhibition [2, 5] | Surface Growth ([3]; 0.25%) | Surface Growth ([3]; 0.5%) | further results
1 | Nc1ncccc1OCC#CI [drawing 14] | 0 | 2 (6-10 mm) | 0 | 0 |  |  | Surface Growth [1, 4]: 0; Surface Growth [2, 4]: 0; Zone of Inhibition [2, 4]: 0
2 | IC#CCSc1cccnc1 [drawing 15] | 0 | 3 (11-15 mm) | 0 | 2 (6-10 mm) |  |  | Surface Growth [1, 4]: 0; Zone of Inhibition [1, 4]: 2 (6-10 mm); Surface Growth [2, 4]: 0; Zone of Inhibition [2, 4]: 0
3 | IC#CCOCc1cccnc1 [drawing 16] | 0 | 5 (>20 mm) | 0 | 4 (16-20 mm) |  |  | Surface Growth [1, 4]: 0; Zone of Inhibition [1, 4]: 4 (16-20 mm); Surface Growth [2, 4]: 0; Zone of Inhibition [2, 4]: 3 (11-15 mm)
4 | IC#CCOc1ccncc1 [drawing 17] | 0 | 2 (6-10 mm) | 0 | 1 (1-5 mm) |  |  | 
5 | IC#CCSc1ccncc1 [drawing 18] | 0 | 1 (1-5 mm) | 0 | 0 |  |  | Surface Growth [1, 4]: 0; Surface Growth [2, 4]: 0; Zone of Inhibition [2, 4]: 0
6 | IC#CCOc1cccnc1 [drawing 19] |  |  |  |  | 0 | 0 | Zone of Inhibition ([3]; 0.5%): 1 (1-5 mm)
7 | Cc1ccc(OCC#CI)cn1 [drawing 20] |  |  |  |  | 0 |  | 
8 | Clc1ncccc1OCC#CI [drawing 21] |  |  |  |  | 0 |  | 
9 | Cc1ccc(OCC#CI)c(Cl)n1 [drawing 22] |  |  |  |  |  | 0 | 
10 | Nc1ncccc1OCC#CI [drawing 23] |  |  |  |  | 1 | 0 | 
11 | IC#CCSc1cccnc1 [drawing 24] |  |  |  |  | 3 | 2 | 
12 | IC#CCOCc1cccnc1 [drawing 25] |  |  |  |  | 0 | 0 | Zone of Inhibition ([3]; 0.5%): 1 (1-5 mm)
13 | IC#CCOc1ccncc1 [drawing 26] |  |  |  |  | 2 | 2 | 
14 | IC#CCOc1ccccc1 [reference compound] |  |  |  |  | 3 | 2 | 
